The text below walks through data of PMC7663263 (Molecules, 2020).

The target in one series is L. infantum TR. To be noted: read-out: Ki L. infantum TR, substrate TS2; 40 nM enzyme, 50–400 µM TS2; steady state; cited from earlier work.
Another series has as its system S. mansoni. The arrangement: method as in PMID 17579510. To be noted: after multiple doses; cited from earlier work.
For the next series, the system named is Human GR. As to conditions: 1.5 nM enzyme, 1 mM GSSG; steady state kinetic studies; read-out: IC50 Human GR, substrate GSSG; cited from earlier work.
In another series the test system is L. major. To be noted: read-out: IC50 against L. major; cited from earlier work.
The subject of the next series is L. amazonensis. To be noted: read-out: IC50 against L. amazonensis; cited from earlier work.
The subject of series [1] is Human TrxR. As to conditions: 2 nM enzyme, 3 mM DTNB; steady state kinetic studies; read-out: IC50 Human TrxR, substrate DTNB; cited from earlier work.
Another series addresses B. pahangi TrxR. As to the kind of experiment: B. pahangi TrxR enzyme assay, DTNB reduction (original data). It is filed as biochemical, Brugia pahangi. To be noted: 20 nM enzyme, 3 mM DTNB; after 15 min preincubation; read-out: IC50 B. pahangi TrxR, substrate DTNB (original data). The method, then: (§1) Enzymes were prepared in E. coli as described. Assays were performed at 25 °C in 0.1 M potassium phosphate (pH 7.4), 10 mM EDTA using 100 μM NADPH and 3 mM dithiobis(2-nitrobenzoic acid) (DTNB). […] The increase in A412 during the first 3 min was recorded upon DTNB addition. The reaction was done in triplicate.

For series [2], the target named is Human TrxR. The arrangement: method as in PMID 9685351. To be noted: 1.7 nM enzyme, steady state kinetic studies, read-out: Ki Human TrxR, substrate E. coli TrxS2, cited from earlier work.
In series [3] the target is human thioredoxin reductase (TrxR). The arrangement: method as in PMID 9685351. As to conditions: cited from earlier work.
The target in series [4] is T1, S. mansoni TGR (Schistosoma mansoni, UniProt Q962Y6).
T1 construct: made in house; host or cells: E. coli
T1 sequence (Q962Y6 1-598): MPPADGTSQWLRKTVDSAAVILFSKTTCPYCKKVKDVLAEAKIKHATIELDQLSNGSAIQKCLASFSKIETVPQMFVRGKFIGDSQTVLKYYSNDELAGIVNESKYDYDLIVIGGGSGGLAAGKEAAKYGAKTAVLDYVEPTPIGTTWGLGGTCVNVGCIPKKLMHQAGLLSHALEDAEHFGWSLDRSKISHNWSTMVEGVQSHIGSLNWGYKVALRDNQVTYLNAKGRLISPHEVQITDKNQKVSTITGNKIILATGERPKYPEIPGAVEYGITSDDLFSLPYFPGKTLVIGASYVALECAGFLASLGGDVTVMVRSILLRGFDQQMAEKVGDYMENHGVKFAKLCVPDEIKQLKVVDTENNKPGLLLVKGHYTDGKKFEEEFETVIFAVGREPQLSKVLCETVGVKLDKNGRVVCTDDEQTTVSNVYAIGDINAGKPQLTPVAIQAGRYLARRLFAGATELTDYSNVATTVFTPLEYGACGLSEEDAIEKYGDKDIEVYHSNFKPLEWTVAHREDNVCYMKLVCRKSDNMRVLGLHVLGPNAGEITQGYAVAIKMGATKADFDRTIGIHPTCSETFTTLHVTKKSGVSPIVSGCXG
The arrangement: method as in PMID 17579510.

Series [5] relates to L. infantum MHOM/MA (BE)/67 amastigotes. The series is described as follows: Anti-leishmanial activity, L. infantum amastigotes in primary peritoneal mouse macrophages. It is filed as cell-based, Leishmania infantum. As to conditions: L. infantum amastigotes; equal IC50 and CC50 values. As for the experimental part:
Anti-leishmanial activity: L. infantum MHOM/MA (BE)/67 amastigotes were collected from the spleen of an infected donor hamster and used to infect primary peritoneal mouse macrophages grown in a 96-well plate. After 2 days outgrowth, 5 × 10^5 amastigotes were added to each well and incubated for 2 h at 37 °C. The compounds were subsequently added and the plates were further incubated for 5 days at 37 °C and 5% CO2. Parasite burdens (mean number of amastigotes/macrophage) were microscopically assessed on 500 cells after Giemsa staining and expressed as a percentage of the blank controls. Miltefosine was included as reference drug. The use of laboratory rodents was carried out in accordance to all mandatory guidelines (EU directives, including the Revised Directive 2010/63/EU on the Protection of Animals used for Scientific Purposes that came into force on 1 January 2013, and the declaration of Helsinki in its latest version) and was approved by the Ethical Committee of the University of Antwerp, Belgium [UA-ECD 2011–77 (17-02-2012 and UA-ECD 2015-90].

Series [6] in a line: Cytotoxicity on human fetal lung fibroblast MRC-5. To be noted: human, mrc-5 cells. The method, then: (§2) Toxicity in human fetal lung fibroblast (MRC-5) cell line and primary mouse macrophages (PMM) was assessed using a previously reported assay in 96-well microtiter plates. Tamoxifen and miltefosine were included as reference drugs (Table 10).
(§3) For MRC5SV2 or PMM cells, the assays were performed in 96-well microtiter plates, each well containing 10 µL of compound dilution and 190 µL of cell inoculum (3 × 10^4 cells/mL) as reported. Cell growth was compared to untreated controls (100% growth) and assay-media controls (0% growth). After three-day incubation, cell viability was assessed fluorometrically by adding resazurin [50 µL/well of a stock solution in phosphate buffer (50 µg/mL)], incubating for 4 h and measuring fluorescence (ex 550 nm, em 590 nm). The results are expressed as percentage reduction in cell growth as compared to untreated control wells. […] Tamoxifen was included as the reference drug.

The nature of series [7]: Cytotoxicity on primary mouse macrophages (PMM). As to conditions: mouse, primary macrophages. As for the experimental part:
as §2, §3

The conditions of series [8]: 1–2 h after oral administration; cited from earlier work.
Series [9] deals with T1, S. mansoni TGR. The arrangement: method as in PMID 17579510. This is another data set of the same source.
The nature of series [10]: Cytotoxicity on RAW 264.7 macrophages. To be noted: mouse, raw 264.7 macrophages, 48 h incubation; read-out: Cytotoxicity on RAW 264.7 Macrophages CC50 (µM) ± SD. The series is classed as cell-based, murine. As for the experimental part:
(§4) Cytotoxicity was evaluated on RAW 264.7 macrophages that were maintained at 37 °C with 5% CO2 in Dulbecco’s Modified Eagle’s Medium (DMEM, Invitrogen, Toulouse, France) supplemented with 100 U/mL penicillin-streptomycin (Invitrogen) and 10% heat-inactivated fetal bovine serum, as previously described. Briefly, cells were plated in 96-well microplates at a density of 2 × 10^4 cells per well. After incubation for 24 h at 37 °C in 5% CO2, the medium was removed from each well and 100 µL of medium containing 2-fold serial dilutions of compounds was added to each well. After 48 h incubation at 37 °C in 5% CO2, 10 µL of 450 µM resazurin was added to each well and further incubated in the dark for 4 h. Cell viability was determined as described above. The cytotoxicity of the compounds was expressed as CC50.

For the next series, the system named is RAW 264.7 macrophages. As to the kind of experiment: Cytotoxicity on RAW 264.7 macrophages. It is filed as cell-based, murine. To be noted: 48 h incubation; 2880 min; read-out: Cytotoxicity on RAW 264.7 Macrophages CC50 (µM) ± SD. The method, then:
as §4

The target of series [11] is T1, S. mansoni TGR. As to the kind of experiment: biochemical. As for the experimental part:
as §1

The target of series [12] is T1, S. mansoni TGR. Set-up: method as in PMID 17579510. This is another data set of the same source.
Another series concerns mitochondrial TrxR2. Set-up: method as in PMID 15458826. To be noted: 2 nM enzyme, 3 mM DTNB; steady state; read-out: IC50 TrxR, substrate DTNB (mitochondrial TrxR2 instead of cytosolic TrxR1); cited from earlier work.

Like-named read-outs stand apart in the source and are kept apart here.

Regarding `CC(=O)OC[C@H]1O[C@@H]([S-])[C@H](OC(C)=O)[C@@H](OC(C)=O)[C@@H]1OC(C)=O.CCP(CC)CC.[Au+]` [Auranofin], the Ki is 0.155 µM at L. infantum TR, 0.002 µM at Human TrxR [2] (at 50 TrxS2), 0.003 µM on Human TrxR [2] (at 75 TrxS2) and 0.004 µM in [3]. In addition, in the series on S. mansoni, the “reduction of worm burdens in S. mansoni infected mice” value is ~ 60%. Moreover, the IC50 was 40 µM with Human GR; 0.07 µM in the series with L. major; 0.27 µM in the series with L. amazonensis; 0.02 µM in the series with Human TrxR [1]; 0.0005 µM on B. pahangi TrxR.
For `CC[P](CC)(CC)=[Au][S][C@@H]1O[C@H](COC(C)=O)[C@@H](OC(C)=O)[C@H](OC(C)=O)[C@H]1OC(C)=O` [Auranofin], the IC50 at S. mansoni TGR [4] (read-out: IC50 S. mansoni TGR, substrate DTNB; 20 nM enzyme, 3 mM DTNB; after 15 min preincubation; cited from earlier work) is 0.007 µM; at S. mansoni TGR [9] (read-out: IC50 S. mansoni TGR, substrate HED + GSSG; 20 nM enzyme, 8 mM substrate; after 15 min preincubation; cited from earlier work) it was 0.006 µM; against S. mansoni TGR [11] it was 0.0011 µM; on S. mansoni TGR [12] (read-out: IC50 S. mansoni TGR, substrate GSSG; 20 nM enzyme, 100 µM GSSG; after 15 min preincubation; cited from earlier work), 0.009 µM. The “IC50 versus CC50 in the assays with mouse macrophages” value in [5] is on record as “non-specific activity”. For the same compound, the figures for the CC50 at 72 h in series [6] and in [7] were 0.52 µM and 2 µM, respectively. Further, the “drug remaining in the plasma” value in [8] is on record as 15–25%. Further, the plasma concentration in series [8] was 10000 ng/mL. Also, the cytotoxic concentration (CC50) at 48 h in series [10] was approximately 4 µM. Also, the CC50 in the series with RAW 264.7 macrophages is 4.43 ± 0.08 µM.
Take `O=C(O)CC([S-])C(=O)O.[Au+]` (stereo not shown) [Aurothiomalate]: the IC50 on S. mansoni TGR [4] (20 nM enzyme, 3 mM DTNB; after 15 min preincubation; read-out: IC50 S. mansoni TGR, substrate DTNB; cited from earlier work) was 0.09 µM; at S. mansoni TGR [9] (20 nM enzyme, 8 mM substrate; after 15 min preincubation; read-out: IC50 S. mansoni TGR, substrate HED + GSSG; cited from earlier work), 0.05 µM; on S. mansoni TGR [12] (20 nM enzyme, 100 µM GSSG; after 15 min preincubation; read-out: IC50 S. mansoni TGR, substrate GSSG; cited from earlier work), 0.05 µM; in the series with mitochondrial TrxR2, 0.28 µM.

By Ki is commonly meant a dissociation constant, usually derived from enzyme kinetics or from competition with a known ligand. By IC50 is commonly meant the point on the concentration scale where inhibition reaches its midpoint. As a reminder, the CC50 is the concentration giving 50% cytotoxicity.
